Results reported in patent US20180318347A1, “METHODS FOR TREATING CANCER” (Agenus Inc., priority 2015, published 2018).
Entries after “also recorded” stand apart in the source; their conditions may differ. Read-outs that look alike come from different tables or passages of the source.

Assays:
GBM patients = assay: Adverse events (CTCAE version 4.0) in the same clinical study; type: in vivo, human; conditions: 46 patients
Protocol: Baseline evaluation including neurologic assessment, complete blood analysis, and tumor imaging with contrast-enhanced MRI was performed pre-operatively and immediately postoperatively, usually within 48 hours. KPS was graded by the treating provider. Repeat assessment by physical examination and imaging was performed at the completion of initial chemoradiotherapy, just prior to the first vaccine administration. Final eligibility to receive vaccine was determined at this time point. After initiation of vaccine therapy, patients were evaluated every 4 weeks by clinical examination, and every 8 weeks by radiographic imaging with contrast-enhanced MRI. Tumor progression was assessed according to the modified RANO criteria (Table 1). Adverse events were assessed and graded according to the National Cancer Institute Common Terminology Criteria for Adverse Event (CTCAE), version 4.0.

[1] = cited from earlier work
GBM [2] = conditions: cited from earlier work; for Median PFS / Median Survival: Rad/TMZ plus Avastin arm
GBM [3] = assay: Published GBM trials used for comparison (Tables 13 and 14, discussion); type: in vivo, human; conditions: Rad/TMZ plus Avastin arm
[4] = AVAglio, Chinot et al, NEJM 2014
[5] = RTOG 0825 Gilbert, et al. NEJM 2014
[6] = RTOG 0825 Trial, Gilbert, NEJM 2013, N = 637

Row | Molecule | Any Adverse Event: TWZ-related event (GBM patients) | Grade 3-4 Event: TWZ-related event (GBM patients) | concentrations in the central nervous system relative to plasma concentrations ([1]; following oral administration) | blood-brain barrier penetration ([1]; in vivo) | bioavailability ([1]; taken orally) | Median PFS (GBM [2]; [4]) | Median Survival (GBM [2]; [4]) | Median PFS (GBM [2]; [5]) | Median Survival (GBM [2]; [5]) | Median Survival, Methylated (GBM [2]; [6]) | Median Survival, Unmethylated (GBM [2]; [6]) | Median overall survival, methylated patients (GBM [2]; bevacizumab trials) | Median overall survival, unmethylated patients (GBM [2]; bevacizumab trials) | Benefit of adding bevacizumab to radiation and temozolomide (GBM [2]; newly diagnosed GBM, randomized phase 3 trials vs placebo) | Estimated Post-Progression Survival (GBM [3]; [4]) | Estimated Post-Progression Survival (GBM [3]; [5])
1 | Cn1nnc2c(C(N)=O)ncn2c1=O [temozolomide] | 42 (91.3%) no. of patients (%) | 21 (45.6%) no. of patients (%) | approximately 30% | able to cross the blood-brain barrier | greater than 95% | – | – | – | – | – | – | – | – | – | – | –
2 | bevacizumab [Avastin] | – | – | – | – | – | 10.6 months | 16.8 months | 10.7 months | 16.1 months | 23.2 months | 14.3 months | 25.0 months | 14.6 months | no significant benefit; also recorded: no improvement in overall survival compared to placebo | 6.2 months | 5.4 months
